This is an account of results in ChEMBL document CHEMBL1201862, “PubChem BioAssay data set” (2004).

Among the test systems are A549; ACHN; DU-145; HCT-116; HL-60; HOP-62; Hs-578T; K562; LOX IMVI; M14; MOLT-4; NCI/ADR-RES; OVCAR-3; OVCAR-8; PC-3; SK-MEL-28; SR; SW-620; U-251; UACC-62.
Holding throughout (assay): NCI tumour cell line growth inhibition, 48 h

Each structure is given as a SMILES string.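 Following 48 hours of exposure in 96-well plates, responses at five concentrations were used to interpolate endpoints linearly. At the GI50, growth is halved.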 The source made the active and inactive calls. No stated cut-off is given here; in the data, active = GI50 up to about 1.1 µM and inactive = higher.

For the compound `CCCC(=O)Nc1cn(COC)c(C(=O)N2C[C@@H]3C[C@]34C2=CC(=O)c2[nH]cc(C)c24)n1`, the GI50 in the assay with A549 is 10.8 µM (inactive); with ACHN, 3.26 µM (inactive); in the assay on DU-145, 1.53 µM (inactive); in the assay on HCT-116, 7.21 µM (inactive); in the assay on HL-60, 1.07 µM (active); in the assay on HOP-62 it was 13.6 µM (inactive). Moreover, the GI50 is 15.1 µM (inactive) in the assay with Hs-578T; 4.35 µM (inactive) with K562; 6.31 µM (inactive) in the assay with LOX IMVI; 13.4 µM (inactive) in the assay with M14; 0.857 µM (active) in the assay on MOLT-4; 7.87 µM (inactive) with NCI/ADR-RES. Moreover, the GI50 is 10.3 µM (inactive) with OVCAR-3; 4.23 µM (inactive) in the assay with OVCAR-8; 6.81 µM (inactive) with PC-3; 14.5 µM (inactive) with SK-MEL-28; 0.24 µM (active) in the assay with SR; 5.58 µM (inactive) with SW-620. Further, the GI50 with U-251 is 12.9 µM (inactive); in the assay on UACC-62 it was 7.62 µM (inactive).

With `COc1cc2ncnc(Nc3cccc(Cl)c3)c2cc1OC` [TYRPHOSTIN AG-1478], the GI50 is 10.6 µM (inactive) in the assay with A549; 0.0446 µM (active) in the assay on ACHN; 1.89 µM (inactive) in the assay with DU-145; 17.6 µM (inactive) in the assay on HCT-116; 21.8 µM (inactive) in the assay on HL-60; 20.8 µM (inactive) with HOP-62. Besides, the GI50 in the assay on Hs-578T was 3.57 µM (inactive); with K562, 8.71 µM (inactive); in the assay on LOX IMVI, 11.5 µM (inactive); in the assay on M14 it was 7.16 µM (inactive); with MOLT-4, 16.4 µM (inactive); in the assay on NCI/ADR-RES, 3.63 µM (inactive). Also, the GI50 is 3.05 µM (inactive) in the assay with OVCAR-3; 3.66 µM (inactive) in the assay on OVCAR-8; 12.6 µM (inactive) in the assay with PC-3; 9.38 µM (inactive) in the assay with SK-MEL-28; 7.33 µM (inactive) in the assay with SR; 16.1 µM (inactive) with SW-620. For the same compound, the GI50 with U-251 was 15.2 µM (inactive); with UACC-62, 7.14 µM (inactive).
